Assay results taken from US8802678B2, “Carbonylated (aza) cyclohexanes as dopamine D3 receptor ligands” (Bioprojet, priority 2006, dated 2014).
Where a name gives a salt, the structure may show the parent alone.

`CC(=O)CN1CCC(CCN2CCN(c3ccc(F)c(C#N)c3Cl)CC2)CC1.Cl.Cl` gave a melting point of 291 °C.
For `COc1cccc(N2CCN(CC[C@H]3CC[C@H](NC(=O)CC#N)CC3)CC2)c1.Cl`, the melting point was 219 °C.
With `Cl.N#CCC(=O)N[C@H]1CC[C@H](CCN2CCN(c3ccccc3C(F)(F)F)CC2)CC1` the melting point was 278 °C.
Work on `CC(=O)CN1CCC(CCN2CCN(c3ccccc3Cl)CC2)CC1.Cl.Cl` yielded a melting point of 265 °C.
For `COCCNC(=O)C[C@H]1CC[C@H](CCN2CCN(c3cccc(C(F)(F)F)c3)CC2)CC1.Cl`, the melting point was 143 °C.
In the case of `CC(=O)CN1CCC(CCN2CCN(c3cccc(Cl)c3F)CC2)CC1.Cl.Cl`, the melting point is reported as 270 °C.
`CC(=O)CN1CCC(CCN2CCN(c3cc(C)cc(C)c3)CC2)CC1.Cl.Cl` showed a melting point of 275 °C.
`CC(=O)CN1CCC(CCN2CCN(c3cccc4ncccc34)CC2)CC1.Cl.Cl` showed a melting point of 295 °C.
In the case of `O=C(N[C@H]1CC[C@H](CCN2CC=C(c3ccc(F)cc3F)CC2)CC1)C1=CCCC1`, the melting point is reported as 166 °C.
With `CC(=O)C(=O)N1CCC(CCN2CCN(c3cccc4c3CCC4)CC2)CC1.Cl` the melting point was 225 °C.
In the case of `Cc1cc(C)cc(C2=CCN(CC[C@H]3CC[C@@H](NC(=O)CC#N)CC3)CC2)c1.Cl`, the melting point is reported as 220 °C.
With `CC(=O)CN1CCC(CCN2CCN(c3ccc(F)c(C(F)(F)F)c3)CC2)CC1.Cl.Cl` the melting point was 266 °C.
Compound `N#CCC(=O)CN1CCC(CCN2CCN(c3cccc(C(F)(F)F)c3)CC2)CC1` (as salt: hydrochloride) has a melting point of 160 °C.
For `CC(=O)CN1CCC(CCN2CCN(c3cccc(Cl)c3Cl)CC2)CC1` (as salt: hydrochloride) [Example 737, 1-(4-{2-[4-(2,3-Dichlorophenyl)piperazin-1-yl]ethyl}piperidin-1-yl)propan-2-one, dihydrochloride], the melting point was 281 °C.
`CNC(=O)CC1CCC(CCN2CCN(c3cccc(C(F)(F)F)c3)CC2)CC1` (mixture of isomers) [Example 295, N-Methyl-2-(4-{2-[4-(3-trifluoromethylphenyl)piperazin-1-yl]ethyl}cyclohexyl)acetamide cis/trans 50/50] showed a melting point of 196 °C.
With `Cl.Cl.N#Cc1cccc(N2CCN(CC[C@H]3CC[C@H](NC(=O)[C@@H]4CCCN4)CC3)CC2)c1` (stereo in doubt) the melting point was 314 °C.
With `Cl.Cl.O=C(N[C@H]1CC[C@H](CCN2CCN(c3cc(C(F)(F)F)ccc3F)CC2)CC1)[C@@H]1CCCN1` (stereo in doubt) the melting point was 274 °C.
Compound `Cl.Cl.O=C(N[C@H]1CC[C@H](CCN2CCN(c3ccc(F)cc3F)CC2)CC1)[C@@H]1CCCN1` (stereo in doubt) has a melting point of 260 °C.
`CO[C@H](C)C(=O)N[C@H]1CC[C@H](CCN2CCN(c3ccccc3F)CC2)CC1` (stereo in doubt) [Example 75, N-(4-{2-[4-(2-Fluorophenyl)-piperazin-1-yl]ethyl}cyclohexyl)-2-methoxypropanamide] gave a melting point of 162 °C.
Work on `N#C[C@@H]1CC1C(=O)N[C@H]1CC[C@H](CCN2CCN(c3cccc(C(F)(F)F)c3)CC2)CC1` (stereo in doubt) [Example 324, 2-Cyano-cyclopropanecarboxylic acid (4-{2-[4-(3-trifluoromethylphenyl)piperazin-1-yl]ethyl}cyclohexyl) amide] yielded a melting point of 159 °C.
With `CC(=O)c1cccc(N2CCN(CC[C@H]3CC[C@H](NC(=O)CC#N)CC3)CC2)c1` [Example 7, N-(4-{2-[4-(3-acetylphenyl)piperazin-1-yl]ethyl}cyclohexyl)-2-cyanoacetamide trans/cis 80/20] the melting point was 160 °C.
For `CC(=O)CN1CCC(CCN2CCN(c3cccc(Cl)c3Cl)CC2)CC1` [Example 21, 1-(4-{2-[4-(2,3-Dichlorophenyl)piperazin-1-yl]ethyl}piperidin-1-yl)propan-2-one], the melting point was 87 °C.
`CC(=O)CN1CCC(CCN2CCN(c3cccc(Cl)c3)CC2)CC1` [Example 29, 1-(4-{2-[4-(3-Chlorophenyl)-piperazin-1-yl]ethyl}piperidin-1-yl)propan-2-one] gave a melting point of 114 °C.
`O=C(N[C@H]1CC[C@H](CCN2CCN(c3cccc(C(F)(F)F)c3)CC2)CC1)C(F)(F)F` [Example 38, 2,2,2-Trifluoro-N-(4-{2-[4-(3-trifluoromethylphenyl)piperazin-1-yl]ethyl}cyclohexyl)acetamide] showed a melting point of 134 °C.
For `COC(=O)N[C@H]1CC[C@H](CCN2CCN(c3cccc(C(F)(F)F)c3)CC2)CC1` [Example 39, (4-{2-[4-(3-Trifluoromethyl-phenyl)piperazin-1-yl]ethyl}cyclo-hexyl)carbamic acid methyl ester], the melting point was 135 °C.
Work on `O=C(N[C@H]1CC[C@H](CCN2CCN(c3cccc(C(F)(F)F)c3)CC2)CC1)C1CCCO1` (stereo partly drawn) [Example 40, Tetrahydrofuran-2-carboxylic acid (4-{2-[4-(3-trifluoromethylphenyl)piperazin-1-yl]ethyl}cyclohexyl)amide] yielded a melting point of 135 °C.
In the case of `COCC(=O)N[C@H]1CC[C@H](CCN2CCN(c3cccc(C(F)(F)F)c3)CC2)CC1` [Example 41, 2-Methoxy-N-(4-{2-[4-(3-trifluoromethylphenyl)piperazin-1-yl]ethyl}cyclohexyl)acetamide], the melting point is reported as 123 °C.
In the case of `O=C(N[C@H]1CC[C@H](CCN2CCN(c3cccc(C(F)(F)F)c3)CC2)CC1)C(F)F` [Example 44, 2,2-Difluoro-N-(4-{2-[4-(3-trifluoromethylphenyl)piperazin-1-yl]ethyl}cyclohexyl)acetamide], the melting point is reported as 128 °C.
`O=C(N[C@H]1CC[C@H](CCN2CCN(c3cccc(C(F)(F)F)c3)CC2)CC1)C1=CCCC1` [Example 45, Cyclopent-1-enecarboxylic acid (4-{2-[4-(3-trifluoromethyl-phenyl)piperazin-1-yl]ethyl}cyclohexyl)amide] gave a melting point of 175 °C.
`COCCC(=O)N[C@H]1CC[C@H](CCN2CCN(c3cccc(C(F)(F)F)c3)CC2)CC1` [Example 47, 3-Methoxy-N-(4-{2-[4-(3-trifluoromethylphenyl)piperazin-1-yl]ethyl}cyclohexyl)propanamide] gave a melting point of 125 °C.
With `COCC(=O)N[C@H]1CC[C@H](CCN2CCN(c3ccc(F)cc3F)CC2)CC1` [Example 48, N-(4-{2-[4-(2,4-Difluorophenyl)-piperazin-1-yl]ethyl}cyclohexyl)-2-methoxyacetamide] the melting point was 154 °C.
With `COCC(=O)N[C@H]1CC[C@H](CCN2CCN(c3cccc(C)c3C#N)CC2)CC1` [Example 49, N-(4-{2-[4-(2-Cyano-3-methylphenyl)piperazin-1-yl]ethyl}cyclohexyl)-2-methoxyacetamide] the melting point was 136 °C.
`COCC(=O)N[C@H]1CC[C@H](CCN2CCN(c3ccccc3F)CC2)CC1` [Example 50, N-(4-{2-[4-(2-Fluorophenyl)-piperazin-1-yl]ethyl}cyclohexyl)-2-methoxyacetamide] gave a melting point of 143 to 144 °C.
In the case of `O=C(N[C@H]1CC[C@H](CCN2CCN(c3cccc(C(F)(F)F)c3)CC2)CC1)C1CC=CC1` [Example 52, Cyclopent-3-enecarboxylic acid (4-{2-[4-(3-trifluoromethylphenyl)-piperazin-1-yl]ethyl}cyclohexyl)-amide], the melting point is reported as 183 °C.
`O=C(N[C@H]1CC[C@H](CCN2CCN(c3cccc(C(F)(F)F)c3)CC2)CC1)C1=CCCCC1` [Example 53, Cyclohex-1-enecarboxylic acid (4-{2-[4-(3-trifluoromethylphenyl)-piperazin-1-yl]ethyl}cyclohexyl)-amide] gave a melting point of 175 °C.
With `COCC(=O)N[C@H]1CC[C@H](CCN2CCC(c3cccc(C)c3C#N)CC2)CC1` [Example 55, N-(4-{2-[4-(2-Cyano-3-methylphenyl)piperidin-1-yl]ethyl}cyclohexyl)-2-methoxyacetamide] the melting point was 141 °C.
With `CCOCC(=O)N[C@H]1CC[C@H](CCN2CCN(c3ccccc3F)CC2)CC1` [Example 56, 2-Ethoxy-N-(4-{2-[4-(2-fluorophenyl)piperazin-1-yl]ethyl}cyclohexyl)acetamide] the melting point was 117 to 118 °C.
`O=C(N[C@H]1CC[C@H](CCN2CCN(c3ccccc3F)CC2)CC1)C1CCCO1` (stereo partly drawn) [Example 57, Tetrahydrofuran-2-carboxylic acid (4-{2-[4-(2-fluorophenyl)piperazin-1-yl]ethyl}cyclohexyl)amide] showed a melting point of 119 to 120 °C.
In the case of `COCC(=O)N[C@H]1CC[C@H](CCN2CCN(c3ccccc3C#N)CC2)CC1` [Example 58, N-(4-{2-[4-(2-Cyanophenyl)-piperazin-1-yl]ethyl}cyclohexyl)-2-methoxyacetamide], the melting point is reported as 113 °C.
Work on `COCC(=O)N[C@H]1CC[C@H](CCN2CCN(c3ccccc3)CC2)CC1` [Example 60, 2-Methoxy-N-{4-[2-(4-phenylpiperazin-1-yl)ethyl]-cyclohexyl}acetamide] yielded a melting point of 136 °C.
For `O=C(CC(F)(F)F)N[C@H]1CC[C@H](CCN2CCN(c3cccc(C(F)(F)F)c3)CC2)CC1` [Example 63, 3,3,3-Trifluoro-N-(4-{2-[4-(3-trifluoromethylphenyl)piperazin-1-yl]ethyl}cyclohexyl)propanamide], the melting point was 156 °C.
`COCCCC(=O)N[C@H]1CC[C@H](CCN2CCN(c3cccc(C(F)(F)F)c3)CC2)CC1` [Example 64, 4-Methoxy-N-(4-{2-[4-(3-trifluoromethylphenyl)piperazin-1-yl]ethyl}cyclohexyl)butanamide] showed a melting point of 149 °C.
Compound `O=C(N[C@H]1CC[C@H](CCN2CCN(c3ccccc3)CC2)CC1)C1=CCCCC1` [Example 66, Cyclohex-1-enecarboxylic acid {4-[2-(4-phenylpiperazin-1-yl)ethyl]cyclohexyl}amide trans/cis 90/10] has a melting point of 193 °C.
In the case of `O=C(N[C@H]1CC[C@H](CCN2CCN(c3ccccc3F)CC2)CC1)C1=CCCCC1` [Example 67, Cyclohex-1-enecarboxylic acid (4-{2-[4-(2-fluorophenyl)-piperazin-1-yl]ethyl}cyclohexyl)-amide], the melting point is reported as 209 °C.
`O=C(N[C@H]1CC[C@H](CCN2CCN(c3ccccc3F)CC2)CC1)C1=CCCC1` [Example 68, Cyclopent-1-enecarboxylic acid (4-{2-[4-(2-fluorophenyl)-piperazin-1-yl]ethyl}-cyclohexyl)amide] gave a melting point of 210 to 211 °C.
